# Experimental data: patent US6500466B2, “Chlorhexidine formulations, new chlorhexidine salts, solutions containing these and their use” (Degussa AG, priority 1998, dated 2002)
# Legend:
# [1] = Light sensitivity and stability compared with the gluconate; format: physicochemical
# [2] = Storage trials: production of p-chloroaniline in aqueous 20 wt. % solutions and in powdered mixtures (FIG. 1, FIG. 2); format: physicochemical; conditions: aqueous solution stored at constant 40° C.
# Description: The composition and appearance of gluconate solutions are subject to the requirements of the European Pharmacopoeia and the American Pharmacopoeia. One of the purity requirements is a concentration of p-chloroaniline limited to 500 ppm. In a reaction which is the reverse of forming the chlorhexidine base from hexamethylenebicyanoguanidine and p-chloroaniline, p-chloroaniline can be reversibly eliminated from these solutions on dissolving the base in D(+) glucono-6-lactone, the internal ester of D(+)-gluconic acid, wherein the solutions discolor and become increasingly yellow to brown. Decomposition of chlorhexidine solutions depends on the pH of the solution and in particular on the storage temperature. Tests show (FIG. 1), that the permissible p-chloroaniline values are exceeded after about one month when stored at a constant temperature of 40° C. Solutions of CHD-gluconate which are stable over the long-term have not hitherto been disclosed. The use of these solutions in regions with a tropical climate is therefore a problem which has not hitherto been resolved satisfactorily. Therefore, there is a need for chlorhexidine salt solutions which tend to decompose to only a small extent when used under extreme climatic conditions, in particular at high temperatures.
# The problem of long-term p-chloroaniline production cannot be solved by the invention of new anions. […]
# [3] = background statement; cited from earlier work
compound,measurement,setting,value
chlorhexidine ascorbate,light sensitivity relative to the gluconate,[1],more light sensitive
same,stability relative to the gluconate,[1],more unstable than the gluconate
N=C(NCCCCCCNC(=N)NC(=N)Nc1ccc(Cl)cc1)NC(=N)Nc1ccc(Cl)cc1.O=C(O)[C@H](O)[C@@H](O)[C@H](O)[C@H](O)CO.O=C(O)[C@H](O)[C@@H](O)[C@H](O)[C@H](O)CO [Chlorhexidine digluconate],time after which permissible p-chloroaniline values (500 ppm) are exceeded,[2],about one
"[H]/N=C(\N/C(=N/[H])NCCCCCCNC(=N)NC(=N)Nc1ccc(Cl)cc1)Nc1ccc(Cl)cc1 [Chlorhexidine, 1,1′-hexamethylene-bis-[5,4-chlorophenyl]-biguanide]",solubility in water,[3],very low solubility in water
